The values below are quoted from earlier work in US8871800B2, “Statin and omega-3 fatty acids for reduction of Apo-B levels” (GlaxoSmithKline, LLC, priority 2006, dated 2014).

In series [1] the test system is patients with hyperlipemia. The note with it: atorvastatin monotherapy 10 mg/day, 5 weeks; compared to baseline.
Series [2] has as its system obese, insulin-resistant men with dyslipidemia. Particulars: atorvastatin monotherapy 40 mg/day, 6 weeks.
The subject of series [3] is patients with hypercholesterolemia. The note with it: lovastatin monotherapy 40 mg/day, 6 weeks.
For series [4], the system named is patients with familial hypercholesterolemia. Particulars: monotherapy (6 g/day Omacor or 40 mg/day lovastatin), 6 weeks.

Regarding `CC(C)c1c(C(=O)Nc2ccccc2)c(-c2ccccc2)c(-c2ccc(F)cc2)n1CC[C@@H](O)C[C@@H](O)CC(=O)O` [atorvastatin], in series [1], the Apo-B levels result is reported as “significantly decreased”, the HDL-C levels entry is on record as “significantly increased”, the LDL-C levels entry was “significantly decreased” and the triglyceride levels result was “significantly decreased”. Also, in series [2], the Apo-B levels entry is listed as “significantly decreased”.

With `CC[C@H](C)C(=O)O[C@H]1C[C@@H](C)C=C2C=C[C@H](C)[C@H](CC[C@@H]3C[C@@H](O)CC(=O)O3)[C@H]21` [lovastatin], in series [3], the Apo-B levels result was “significantly reduced”, the HDL-C levels entry is given as “significant increases”, the LDL-C levels entry is “significant decreases” and the triglyceride levels result is given as “significant decreases”. In series [4], the Apo-B levels entry was “significantly reduced”.
